Assays:
[1] = test system: Jeko-1 cells; assay: Cytotoxicity assay with Vγ9Vδ2-T cell lines, Jeko-1 target cells; assay type: cell-based, human; settings: 2 hours pretreatment (50 μM pamidronate or 25 μM mevastatin), 1:2; for 1D7-5C8-induced lysis of pretreated Jeko-1 cells: 100 nM 1D7-5C8, 6 hours; for Vγ9Vδ2-T cell-mediated lysis of pretreated Jeko-1 cells: no bispecific antibody, 6 hours
Procedure: Target cells were then cocultured overnight with Vγ9Vδ2-T cell lines in a 1:1 ratio unless otherwise indicated. Viability was measured using Mitotracker Orange (25-minute incubation at 37° C., M7510) and To-pro-3 (10-minute incubation at room temperature; T3605, both Thermo Fisher Scientific).
If indicated, target cells were pretreated with 25 μM mevastatin (M2537, Sigma-Aldrich), 50 μM aminobisphosphonates (pamidronate, #12J08RD, TEVA Pharmachemie, Haarlem, the Netherlands) or medium control for 2 hours.
If indicated, cells were cultured with the indicated concentrations of all-trans retinoic acid (ATRA; R2625, Sigma-Aldrich) for 48 hours unless otherwise indicated. ATRA was washed away prior to cytotoxicity assays.
If indicated, target cells were pre-incubated with 5 μg/mL anti-CD1d mAb (clone 51.1, 350304, Biolegend, San Diego, CA, USA) and/or 10 μg/mL anti-CD277 mAb (clone 103.2, Creative Biolabs, Shirley, NY, USA) for 10 minutes.

[2] = test system: CLL patient-derived Vγ9Vδ2-T cells; assay: Activation, cytokine and degranulation assay with autologous CLL patient-derived Vγ9Vδ2-T cells; assay type: cell-based, human; settings: overnight culture of CLL PBMC; 1D7-5C8 50 nM
Text: (A-C) Activation of and cytokine production and degranulation by patient-derived Vγ9Vδ2-T cells. […] (D) Lysis of primary CLL cells by autologous Vγ9Vδ2-T cells. […] Live CLL cells were quantified by flow cytometry using counting beads (n=5). (E) Expansion of patient-derived Vγ9Vδ2-T cells. […] Percentage Vγ9Vδ2-T cells after 1 week (n=8). Data are presented as mean and SD. *P<0.05, **P<0.01, ***P<0.001. (A-D: one-way ANOVA followed by Dunnett's post hoc test compared to medium control; E: paired t-test).

[3] = biological target: T1, CD1d (Homo sapiens, UniProt P15813); settings: previously characterized; cited from earlier work
T1 construct: expressed in transfected cells; host or cells: MM.1s (human multiple myeloma cell line) stably transduced with CD1d
T1 sequence (P15813 20-335): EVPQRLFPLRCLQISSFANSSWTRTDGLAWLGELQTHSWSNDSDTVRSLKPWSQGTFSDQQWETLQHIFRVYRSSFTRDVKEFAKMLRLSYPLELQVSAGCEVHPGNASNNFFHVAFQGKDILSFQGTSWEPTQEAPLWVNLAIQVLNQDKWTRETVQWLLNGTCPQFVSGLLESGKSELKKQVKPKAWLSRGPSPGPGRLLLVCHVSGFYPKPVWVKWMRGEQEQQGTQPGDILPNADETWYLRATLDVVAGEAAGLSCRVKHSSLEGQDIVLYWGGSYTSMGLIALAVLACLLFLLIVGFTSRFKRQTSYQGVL
T1 sequence (P61769 21-119 partner): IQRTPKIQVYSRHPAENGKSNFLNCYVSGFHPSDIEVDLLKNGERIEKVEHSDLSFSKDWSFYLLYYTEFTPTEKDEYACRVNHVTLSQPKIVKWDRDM

[4] = biological target: T2, sulfatide-loaded CD1d tetramers (Homo sapiens, UniProt P15813); assay: CD1d-tetramer binding on Jurkat-Vδ1 cells; settings: ratio VHH:CD1d of ~4:1; tetramer 2 μg/ml
T2 construct: made in house
T2 sequence (P15813 20-301 limits assumed): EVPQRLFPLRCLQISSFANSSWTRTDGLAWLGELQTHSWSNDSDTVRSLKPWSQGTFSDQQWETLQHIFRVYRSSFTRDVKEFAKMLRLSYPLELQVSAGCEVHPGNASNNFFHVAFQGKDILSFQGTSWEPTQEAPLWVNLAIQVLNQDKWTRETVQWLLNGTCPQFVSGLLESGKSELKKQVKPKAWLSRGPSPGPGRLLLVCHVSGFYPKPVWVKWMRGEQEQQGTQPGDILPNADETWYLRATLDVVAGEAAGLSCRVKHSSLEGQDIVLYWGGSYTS
T2 sequence (P61769 21-119 partner): as the sequence (P61769 21-119 partner) above
Procedure: (§1) FIG. 2. Vδ1-sulf-CD1d interaction is prevented by anti-CD1d VHH 1D12 and reduced by 1D22. Endogenous or sulfatide loaded CD1d-PE tetramers were incubated with either PBS (control), 1D12 or 1D22 (4:1VHH:CD1d ratio) after which tetramers were used to stain Jurkat-Vδ1 cells (final concentration tetramer 2 μg/ml) in combination with CD3-APC. Tetramer binding is prevented by 1D12 and reduced by 1D22 (A). C1R-CD1d cells were incubated with DMSO controls or sulfatide (25 μg/ml) after which medium or anti-CD1d VHH were added at 1000 or 100 nM and incubated for 30 min. Next Jurkat-Vδ1 cells were added and the co-culture was incubated for an additional 24 h after which CD69 expression was determined by flow cytometry (B). N=3.
To evaluate the effect of 1D12 and 1D22 on CD1d-tetramer binding on Jurkat-Vδ1 cells, endogenous or sulfatide-loaded CD1d-PE tetramers were incubated with either PBS (control), 1D12 or 1D22 (ratio VHH:CD1d of ˜4:1) for 30 min at room temperature after which tetramers were added to Jurkat-Vδ1 cells (final concentration tetramer 2 μg/ml) in combination with CD3-APC and incubated for 45 min at 4 degrees Celsius. Data was analyzed by flow cytometry.

[5] = test system: Jurkat-Vδ1 cells; assay: Modulation of Jurkat-Vδ1 cell activation (C1R-CD1d co-culture, CD69); assay type: cell-based, human; settings: C1R-CD1d pulsed with 25 μg/ml sulfatide; VHH 100 nM or 1000 nM; 24 hr
Procedure: as §1
iNKT cells are known to dock over the extreme F′ pocket of CD1d which contrasts with sulfatide-CD1d restricted Vδ1-T cells that dock more towards the A′ pocket. We therefore evaluated the effect of 1D12 and 1D22 on sulfatide-CD1d restricted Vδ1-T cells. To evaluate the effect of 1D12 and 1D22 on Jurkat-Vδ1 cell activation, 1×10^5 C1R-CD1d cells were seeded per well in a 96-well tissue culture plate and pulsed for 2 hr with vehicle control (DMSO 0.05%) or 25 μg/ml sulfatide. […] After 24 hr Jurkat-Vδ1 cells were harvested and analysed for CD69 expression by flow cytometry. […]

[6] = test system: iNKT cells; assay: Modulation of iNKT cell activation (co-culture with Hela-CD1d cells); assay type: cell-based, human; settings: 24 hr co-culture with Hela-CD1d pulsed with vehicle or α-GalCer; 1D12 100 nM, 1D22 1000 nM
Text: FIG. 1. […] Representative dot-plots illustrating marked activation by 1D12 (A) or inhibition by 1D22 (B) of iNKT cells as depicted by CD25 expression, in addition to a marked increase (by 1D12) or decrease (by 1D22) in iNKT cell IFN-γ production (C and D). Data represent mean+SD of 3-4 individual experiments with iNKT obtained from different donors, **P<0.01, ***P<0.001, calculated with a one-way analysis of variance with Turkey's post hoc test.
To evaluate the capacity of 1D12 and 1D22 to stimulate or inhibit iNKT cell activation, 5×10^4 Hela-CD1d cells were seeded per well in a 96-well tissue culture plate and pulsed overnight with vehicle control (DMSO 0.01%) or 100 ng/ml α-GalCer. Cells were then washed with PBS and incubated with medium, or the anti-CD1d specific VHH for 1 hr at the indicated concentrations. Subsequently, 5×10^4 pure and resting iNKT were added to each well. After 24 hr, culture supernatants were analyzed for (induction or inhibition of) cytokine production by CBA (BD Biosciences) whereas iNKT cells were harvested and analyzed for CD25 expression by flow cytometry.

In the case of `CC[C@H](C)C(=O)O[C@H]1CCC=C2C=C[C@H](C)[C@H](CC[C@@H]3C[C@@H](O)CC(=O)O3)[C@H]21` [mevastatin, reference compound], the “1D7-5C8-induced lysis of pretreated Jeko-1 cells” value [1] is reported as “decreased bispecific antibody 1D7-5C8-induced lysis” and the “Vγ9Vδ2-T cell-mediated lysis of pretreated Jeko-1 cells” value [1] is reported as “led to a reduction in lysis”.

For `NCCC(O)(P(=O)(O)O)P(=O)(O)O` [pamidronate, reference compound], the “Upregulation of activation marker CD25 on patient Vγ9Vδ2-T cells” value [2] was 20.5 fold, the “1D7-5C8-induced lysis of pretreated Jeko-1 cells” value [1] was “led to an increase in bispecific antibody 1D7-5C8-induced lysis of Jeko-1 cells” and the “Vγ9Vδ2-T cell-mediated lysis of pretreated Jeko-1 cells” value [1] was “more sensitive to Vγ9Vδ2-T cell-mediated cytotoxicity”.

B1: 1D7: CD1d-specific VHH, SEQ ID NO: 70 (protein)
VHH: EVQLVESGGGLVQAGGSLRLSCAASVSSFSSYTMGTIRTGGSTNYADSVKGGIRWDDENPYYADSVKGRFTISRDNAKNTLYLQMNSLKPEDTANYYCAARLVPPGIPFERTLENMRYWGKGTLVTVSS
modifications: antibody sequence
For B1, the “Affinity for CD1d” value [3] is given as “high affinity for CD1d”.

B2: 1D22: anti-CD1d VHH, SEQ ID NO: 84 (protein)
VHH: QVQLVESGGGLVQAGGSLRLSCAASGSIFSINAMGAIRWSGESPYYADSVKGVISSSGSTNYADSVKGRFTISRDNAKNTAYLQMNSLKVEDTAVYYCAAHVAGFDEYNYWGQGTQVTVSS
modifications: antibody sequence
For B2, the “Binding of sulfatide-loaded CD1d tetramers to Jurkat-Vδ1 cells” value [4] was “only a limited impact”, the “Jurkat-Vδ1 cell activation (CD69 expression)” value [5] was “only a limited impact on expression of the activation marker CD69” and the “iNKT cell activation (CD25 expression) and cytokine production” value [6] was “completely blocked iNKT cell activation and cytokine production”.

Source: patent US12077586B2, “Bispecific antibodies for use in the treatment of hematological malignancies” (LAVA THERAPEUTICS N.V., priority 2018, dated 2024)
